Data from US20210330738A1, “ANTIMICROBIAL, BACTERIOPHAGE-DERIVED POLYPEPTIDES AND THEIR USE AGAINST GRAM-NEGATIVE BACTERIA” (CONTRAFECT CORPORATION, priority 2018, published 2021).

Legend:
[1] = system: P. aeruginosa strain PAO1; experiment: MIC in Mueller-Hinton broth supplemented with 50% human plasma or human serum; assay type: cell-based, Pseudomonas aeruginosa; details: for Minimal inhibitory concentration, Human Plasma: Mueller-Hinton broth supplemented with 50% human plasma; for Minimal inhibitory concentration, Human Serum: Mueller-Hinton broth supplemented with 50% human serum
[2] = system: mature biofilms formed by P. aeruginosa strain ATCC 17647; experiment: Minimal Biofilm Eradicating Concentration (MBEC), Calgary Biofilm Device, crystal violet; assay type: cell-based, Pseudomonas aeruginosa; details: P. aeruginosa ATCC 17647 mature biofilm, >95% biofilm biomass removed

Substance	Minimal inhibitory concentration, Human Plasma [1]	Minimal inhibitory concentration, Human Serum [1]	MBEC [2]	MBEC ([2]; listed as T4 lysozyme)
PGLa	>64 µg/mL	>64 µg/mL		
LL-37	>64 µg/mL	>64 µg/mL		
T4 lysozyme [Peptide T4LYZ]			>64 µg/mL	> 64 µg/mL
Protegrin 1	1 µg/mL	4 µg/mL		
